Laboratory results: PubChem BioAssay AID1259407 (Chemical Carcinogenesis Research Information System (CCRIS), 2018)
Calls of active or inactive are those of the source. No rule for the calls is given here.

Tested on: CCRIS mutagenicity, Ames/micronucleus/aberration tests
Assay: CCRIS mutagenicity studies
[1] = Test System: AMES SALMONELLA TYPHIMURIUM, Strain/Indicator: TA98, Metabolic Activation: NONE, Method: STANDARD PLATE
[2] = Test System: AMES SALMONELLA TYPHIMURIUM, Strain/Indicator: TA98, Metabolic Activation: RAT, LIVER, S-9, AROCLOR 1254, Method: STANDARD PLATE
[3] = Test System: AMES SALMONELLA TYPHIMURIUM, Strain/Indicator: TA100, Metabolic Activation: NONE, Method: STANDARD PLATE
[4] = Test System: AMES SALMONELLA TYPHIMURIUM, Strain/Indicator: TA100, Metabolic Activation: RAT, LIVER, S-9, AROCLOR 1254, Method: STANDARD PLATE
[5] = Test System: MOUSE LYMPHOMA, Strain/Indicator: L5178Y (TK+/TK-), Metabolic Activation: NONE, Method: SUSPENSION/PLATE
[6] = Test System: AMES SALMONELLA TYPHIMURIUM, Strain/Indicator: TA1535, Metabolic Activation: HAMSTER, LIVER, S-9, AROCLOR 1254, Method: STANDARD PLATE

## COc1ccc(CN(CCN(C)C)c2ccccn2)cc1
Test System: AMES SALMONELLA TYPHIMURIUM, Strain/Indicator: TA97, Metabolic Activation: NONE, Method: STANDARD PLATE
  mutagenic call: inactive; negative
Test System: AMES SALMONELLA TYPHIMURIUM, Strain/Indicator: TA97, Metabolic Activation: RAT, LIVER, S-9, AROCLOR 1254, Method: STANDARD PLATE
  mutagenic call: inactive; negative
Test System: AMES SALMONELLA TYPHIMURIUM, Strain/Indicator: TA98, Metabolic Activation: HAMSTER, LIVER, S-9, AROCLOR 1254 (10%), Method: PREINCUBATION
  mutagenic call: inactive; negative
Test System: AMES SALMONELLA TYPHIMURIUM, Strain/Indicator: TA98, Metabolic Activation: NONE, Method: PREINCUBATION
  mutagenic call: inactive; negative
[1]
  mutagenic call: inactive; negative
Test System: AMES SALMONELLA TYPHIMURIUM, Strain/Indicator: TA98, Metabolic Activation: RAT, LIVER, S-9, AROCLOR 1254 (10%), Method: PREINCUBATION
  mutagenic call: inactive; negative
[2]
  mutagenic call: inactive; negative
Test System: AMES SALMONELLA TYPHIMURIUM, Strain/Indicator: TA100, Metabolic Activation: HAMSTER, LIVER, S-9, AROCLOR 1254 (10%), Method: PREINCUBATION
  mutagenic call: inactive; negative
Test System: AMES SALMONELLA TYPHIMURIUM, Strain/Indicator: TA100, Metabolic Activation: NONE, Method: PREINCUBATION
  mutagenic call: inactive; negative
[3]
  mutagenic call: inactive; negative
Test System: AMES SALMONELLA TYPHIMURIUM, Strain/Indicator: TA100, Metabolic Activation: RAT, LIVER, S-9, AROCLOR 1254 (10%), Method: PREINCUBATION
  mutagenic call: inactive; negative
[4]
  mutagenic call: inactive; negative
Test System: AMES SALMONELLA TYPHIMURIUM, Strain/Indicator: TA102, Metabolic Activation: NONE, Method: STANDARD PLATE
  mutagenic call: inactive; negative
Test System: AMES SALMONELLA TYPHIMURIUM, Strain/Indicator: TA102, Metabolic Activation: RAT, LIVER, S-9, AROCLOR 1254, Method: STANDARD PLATE
  mutagenic call: inactive; negative
Test System: AMES SALMONELLA TYPHIMURIUM, Strain/Indicator: TA1535, Metabolic Activation: HAMSTER, LIVER, S-9, AROCLOR 1254 (10%), Method: PREINCUBATION
  mutagenic call: inactive; negative
Test System: AMES SALMONELLA TYPHIMURIUM, Strain/Indicator: TA1535, Metabolic Activation: NONE, Method: PREINCUBATION
  mutagenic call: inactive; negative
Test System: AMES SALMONELLA TYPHIMURIUM, Strain/Indicator: TA1535, Metabolic Activation: RAT, LIVER, S-9, AROCLOR 1254 (10%), Method: PREINCUBATION
  mutagenic call: inactive; negative
Test System: AMES SALMONELLA TYPHIMURIUM, Strain/Indicator: TA1537, Metabolic Activation: HAMSTER, LIVER, S-9, AROCLOR 1254 (10%), Method: PREINCUBATION
  mutagenic call: inactive; negative
Test System: AMES SALMONELLA TYPHIMURIUM, Strain/Indicator: TA1537, Metabolic Activation: NONE, Method: PREINCUBATION
  mutagenic call: inactive; negative
Test System: AMES SALMONELLA TYPHIMURIUM, Strain/Indicator: TA1537, Metabolic Activation: RAT, LIVER, S-9, AROCLOR 1254 (10%), Method: PREINCUBATION
  mutagenic call: inactive; negative
[5]
  mutagenic call: inactive; negative
Test System: MOUSE LYMPHOMA, Strain/Indicator: L5178Y (TK+/TK-), Metabolic Activation: RAT, LIVER, S-9, AROCLOR 1242 AND 1254 (2:1 MIXTURE), Method: SUSPENSION/PLATE
  mutagenic call: active; positive

## CCCOc1ccccc1C(=O)NOC(C)=O
[3]
  mutagenic call: active; positive
Test System: AMES SALMONELLA TYPHIMURIUM, Strain/Indicator: TA100, Metabolic Activation: RAT, S-9, AROCLOR, Method: STANDARD PLATE
  mutagenic call: active; positive

## CN(Cc1cccc(C(F)(F)F)c1)N=O
[6]
  mutagenic call: active; positive
Test System: AMES SALMONELLA TYPHIMURIUM, Strain/Indicator: TA1535, Metabolic Activation: NONE, Method: STANDARD PLATE
  mutagenic call: inactive; negative

## Cc1ccc2nc(-c3ccc(N)cc3)sc2c1
Test System: AMES SALMONELLA TYPHIMURIUM, Strain/Indicator: 1537, Metabolic Activation: NONE, Method: STANDARD PLATE
  mutagenic call: inactive; negative
Test System: AMES SALMONELLA TYPHIMURIUM, Strain/Indicator: TA98, Metabolic Activation: HAMSTER, LIVER, S-9, AROCLOR 1254, Method: STANDARD PLATE
  mutagenic call: active; positive
[1]
  mutagenic call: inactive; negative
[2]
  mutagenic call: active; positive
Test System: AMES SALMONELLA TYPHIMURIUM, Strain/Indicator: TA100, Metabolic Activation: HAMSTER, LIVER, S-9, AROCLOR 1254, Method: STANDARD PLATE
  mutagenic call: active; positive
[3]
  mutagenic call: inactive; negative
[4]
  mutagenic call: active; positive
[6]
  mutagenic call: inactive; negative
Test System: AMES SALMONELLA TYPHIMURIUM, Strain/Indicator: TA1535, Metabolic Activation: RAT, LIVER, S-9, AROCLOR 1254, Method: STANDARD PLATE
  mutagenic call: inactive; negative
Test System: AMES SALMONELLA TYPHIMURIUM, Strain/Indicator: TA1537, Metabolic Activation: HAMSTER, LIVER, S-9, AROCLOR 1254, Method: STANDARD PLATE
  mutagenic call: active; positive
Test System: AMES SALMONELLA TYPHIMURIUM, Strain/Indicator: TA1537, Metabolic Activation: RAT, LIVER, S-9, AROCLOR 1254, Method: STANDARD PLATE
  mutagenic call: active; positive
Test System: AMES SALMONELLA TYPHIMURIUM, Strain/Indicator: TA1538, Metabolic Activation: HAMSTER, LIVER, S-9, AROCLOR 1254, Method: STANDARD PLATE
  mutagenic call: active; positive
Test System: AMES SALMONELLA TYPHIMURIUM, Strain/Indicator: TA1538, Metabolic Activation: NONE, Method: STANDARD PLATE
  mutagenic call: inactive; negative
Test System: AMES SALMONELLA TYPHIMURIUM, Strain/Indicator: TA1538, Metabolic Activation: RAT, LIVER, S-9, AROCLOR 1254, Method: STANDARD PLATE
  mutagenic call: active; positive
[5]
  mutagenic call: active; positive. reevaluation of results: positive
Test System: MOUSE LYMPHOMA, Strain/Indicator: L5178Y (TK+/TK-), Metabolic Activation: RAT, LIVER, S-9, AROCLOR 1254, Method: SUSPENSION/PLATE
  mutagenic call: active; positive. reevaluation of results: positive

## Cc1c2c(c(C)c3ccccc13)-c1cccc3cccc-2c13
Test System: AMES SALMONELLA TYPHIMURIUM, Strain/Indicator: TA100, Metabolic Activation: RAT, LIVER, S-9, AROCLOR 1254
  mutagenic call: active; positive

## CC(=O)CCN(C)N=O
Test System: CHINESE HAMSTER V-79, Strain/Indicator: V-79/OUABAIN, Metabolic Activation: HAMSTER, HEPATOCYTES, Method: CELL-MEDIATED
  mutagenic call: active; positive
